Results reported in PubChem BioAssay (NCI).
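These data come from cells grown in 96-well plates and exposed to compound for 48 hours at five concentrations. The concentration for 50% growth inhibition is given as GI50. TGI: concentration producing complete growth inhibition.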

What follows are compounds tested on MDA-MB-468 breast (assay: NCI tumour cell line growth inhibition, 48 h).

Question: `CS(=O)(=O)Nc1ccc(-c2ccc3c(NC(=O)C4CC4)n[nH]c3c2)cc1` was tested. Which GI50 did it give?
Answer: The GI50 was 7200 nM.

Question: What about the TGI of the same compound?
Answer: Its TGI is > 23.7 µM.

Question: Which results are given for `Cc1ccc(-c2nc(C(Cl)Cl)n3nc(-c4ccccc4)cc3n2)cc1`?
Answer: GI50: 239 nM; TGI: 0.612 µM

Question: `COc1ccc2c(c1)C=CC(C#N)N2C(=O)c1ccccc1` (centres undefined) was tested. Which GI50 did it give?
Answer: The GI50 was < 10 nM.

Question: And the TGI?
Answer: Its TGI is > 100 µM.

Question: How did the GI50 turn out when `N#Cc1c(-c2ccccc2)nc2c(c(-c3ccccc3)nn2-c2ccccc2)c1-c1ccc(O)cc1` was run?
Answer: The GI50 was 2410 nM.

Question: And the TGI?
Answer: Its TGI is 5.57 µM.

Question: For `C=CCOc1c(Br)cc(Br)cc1Br`, which GI50 is on record?
Answer: The GI50 was 26400 nM.

Question: What about the TGI of the same compound?
Answer: Its TGI is > 100 µM.

Question: `NCCN1CCN(c2nccc(-c3ccc4ccccc4c3)n2)CC1` was tested. Which GI50 did it give?
Answer: The GI50 was 1770 nM.

Question: And the TGI?
Answer: The TGI was 3.42 µM.

Question: What does the source list for `CN(C)CCCNc1c2ccc(Cl)cc2nc2c1oc1ccccc12`?
Answer: GI50: 3320 nM; TGI: 14 µM

Question: Which GI50 does the source give for `Oc1ccc(Cc2ccccc2)c2cccnc12` here?
Answer: The GI50 was 1920 nM.

Question: And the TGI?
Answer: Its TGI is 5.51 µM.

Question: For `FC(F)(F)c1ccc2c(Nc3cccc(C4CC(c5ccccc5)=NN4c4ccc(Cl)cc4)c3)ccnc2c1` (centres undefined), which GI50 is on record?
Answer: The GI50 was 3020 nM.

Question: And the TGI?
Answer: The TGI was 16.6 µM.

Question: What does the source list for `CNc1nc(NC2CCCC2)nc(Sc2ccc(OC)cc2)n1`?
Answer: GI50: > 10000 nM; TGI: > 10 µM

Question: How did the GI50 turn out when `CNC(=O)c1ccc(-c2cnc3ncc(Cc4ccc5ncccc5c4)n3n2)cc1F` was run?
Answer: Its GI50 is 92300 nM.

Question: What about the TGI of the same compound?
Answer: The TGI was > 100 µM.

Question: What does the source list for `CCCS(=O)(=O)c1nc(NC2CC2)cc(-c2ccc3c(ccn3C3CC(C)(C)NC(C)(C)C3)c2)n1`?
Answer: GI50: 1750 nM; TGI: 3.61 µM

Question: With `CC(=O)n1c(-c2ccc(Cl)cc2)nc2c(c1=O)C(c1ccc(Cl)cc1)c1sc3c(Cl)cccc3c1O2` (centres undefined) as the compound, how does the GI50 read?
Answer: Its GI50 is 225 nM.

Question: And the TGI?
Answer: Its TGI is 0.56 µM.

Question: With `C=CC(=O)N1CCN(c2ncnc3c(F)c(-c4c(O)cccc4F)c(Cl)cc23)CC1` as the compound, how does the GI50 read?
Answer: Its GI50 is 10200 nM.

Question: And the TGI?
Answer: Its TGI is 31.1 µM.

Question: What does the source list for `O=P(O)(O)C(O)(Cn1ccnc1)P(=O)(O)O`?
Answer: GI50: > 87300 nM; TGI: > 100 µM

Question: Which results are given for `C=C1C(=O)O[C@H]2[C@H]1CC/C(COC(=O)c1cc3cc(OC)ccc3[nH]1)=C\CC[C@@]1(C)O[C@@H]21`?
Answer: GI50: 1130 nM; TGI: 2.85 µM

Question: `CCN(Cc1c(F)cccc1F)c1ccc(CO)c(Cl)c1` was tested. Which GI50 did it give?
Answer: The GI50 was 14.8 nM.

Question: And the TGI?
Answer: The TGI was 0.033 µM.

Question: For `COc1ccc(/C=N/NC(=O)c2[nH]c3ccc(Br)cc3c2-c2ccccc2)s1`, which GI50 is on record?
Answer: The GI50 was 58.6 nM.

Question: What about the TGI of the same compound?
Answer: Its TGI is 3.78 µM.

Question: How did the GI50 turn out when `O=C(N/N=C/c1ccc(Cl)cc1Cl)c1ccccc1Nc1cccc(C(F)(F)F)c1` was run?
Answer: Its GI50 is 2880 nM.

Question: And the TGI?
Answer: The TGI was 12 µM.

Question: How did the GI50 turn out when `O=c1cc(-c2ccccc2F)[nH]c2cc3c(cc12)OCO3` was run?
Answer: The GI50 was 6390 nM.

Question: And the TGI?
Answer: The TGI was > 100 µM.

Question: `CC(C)(C)OC(=O)c1ccc(NCc2cc(O)ccc2O)cc1` was tested. Which GI50 did it give?
Answer: The GI50 was 1510 nM.

Question: What about the TGI of the same compound?
Answer: Its TGI is 3.45 µM.

Question: Which results are given for `COc1ccc(NC2=C(Br)C(=O)C(C)=C(C)C2=O)cc1`?
Answer: GI50: 1560 nM; TGI: 3.16 µM

Question: With `CCOC(=O)[C@@H](C)C[C@H](Cc1ccccc1)NC(=O)c1csc([C@@H](C[C@H](C(C)C)N(C)C(=O)[C@@H](NC(=O)[C@H]2CCCCN2C)C(C)(C)C)OC(C)=O)n1` as the compound, how does the GI50 read?
Answer: Its GI50 is < 1.67 nM.

Question: And the TGI?
Answer: The TGI was 0.0752 µM.

Question: What does the source list for `COc1ccc(/C=N/Nc2nc3ccccc3c(=O)n2-c2ccccc2)c(OCc2ccccc2)c1`?
Answer: GI50: > 100000 nM; TGI: > 100 µM

Question: With `Cc1ncc(NC(=O)c2ccc(CN3CCN(C)CC3)c(C(F)(F)F)c2)cc1Nc1nccc(-c2cccnc2)n1` as the compound, how does the GI50 read?
Answer: The GI50 was 14600 nM.

Question: And the TGI?
Answer: Its TGI is 29.4 µM.

Question: With `COCC(=O)OC1CCn2c1nc1c2C(=O)C(C)=C(NC(C)=O)C1=O` (centres undefined) as the compound, how does the GI50 read?
Answer: The GI50 was 270 nM.

Question: What about the TGI of the same compound?
Answer: The TGI was 0.894 µM.

Question: `Cc1noc(C)c1-c1ccc2[nH]c(=O)n3c2c1OC[C@@H]3c1ccccn1` was tested. Which GI50 did it give?
Answer: The GI50 was 719 nM.

Question: What about the TGI of the same compound?
Answer: Its TGI is > 91.3 µM.

Question: What does the source list for `CC(C)(C)c1nc2c(o1)C(=Nc1ccc(F)cc1)c1ccccc1C2=O`?
Answer: GI50: 5840 nM; TGI: > 100 µM

Question: How did the GI50 turn out when `Nc1nc(Nc2ccc(OCc3cccc(F)c3)cc2)c2c(n1)[nH]c1ccc(O)cc12` was run?
Answer: Its GI50 is 1980 nM.

Question: And the TGI?
Answer: Its TGI is 5.36 µM.

Question: `CCCCCCNc1nc(NCCCCCC)c2[nH]c(NCCCCCC)nc2n1` was tested. Which GI50 did it give?
Answer: Its GI50 is 1170 nM.

Question: What about the TGI of the same compound?
Answer: Its TGI is 5.46 µM.

Question: How did the GI50 turn out when `CN1CCN(Cc2ccc(NC(=O)c3ccc(C(C)(C)C)c(C#Cc4cnc5cccnn45)c3)cc2C(F)(F)F)CC1` was run?
Answer: Its GI50 is 1980 nM.

Question: What about the TGI of the same compound?
Answer: The TGI was 3.77 µM.

Question: With `CC(=O)Nc1cc(F)cc(-c2ccc3[nH]cc(-c4ccccc4)c3n2)c1` as the compound, how does the GI50 read?
Answer: The GI50 was 2090 nM.

Question: And the TGI?
Answer: The TGI was 6.4 µM.
